Data from patent US7205409B2, “Pharmaceutical compositions as inhibitors of dipeptidyl peptidase-IV (DPP-IV)” (Abbott Laboratories, priority 2003, dated 2007).

Experiments:
[1] = Chemical Stability Assay (HPLC, phosphate buffer pH 7.4, 37° C.); assay type: physicochemical; conditions: stability to internal cyclization, read-out: chemical stability half-life (T1/2) (converted)
Procedure: For the determination of chemical stability, compounds of the present invention are assayed using the following protocol:
A solution of each DPP-IV compound was prepared in an appropriate mobile phase. This was injected and analyzed by HPLC to identify the parent drug peak in the chromatograms. Stability solutions were prepared in 50 mM phosphate buffer pH 7.4 adjusted to μ=0.155. Samples were weighed using a Mettler-Toledo microbalance and transferred into a 20 ml glass scintillation vial or a volumetric flask. The phosphate buffer pH 7.4 was added with an EDP Plus 10 ml electronic pipette. The samples were sonicated for approximately 2 minutes and filtered using a PTFE membrane syringe filter. The filtrate was transferred to amber HPLC vials and placed in an autosampler at 37° C. The first sample was immediately injected and counted as the time zero sample. The solution concentration was measured at various timepoints using an appropriate HPLC method. After data acquisition was completed, the chromatograms were processed for each compound. The rate and half-life were determined from a plot of log10 peak area remaining/peak area at zero time vs. exposure time @37° C. using Microsoft® Excel 2000. Rates of reaction and half-lives were calculated using a pseudo-first order kinetic model.

[2] = system: Insulin resistant female ZDF rats; assay: acute oral glucose tolerance test (OGTT); assay type: in vivo, rat; conditions: OGTT 2 gm/kg four hours later
Procedure: Compounds of the present invention are evaluated for the ability to treat diabetes using an acute oral glucose tolerance test (OGTT) as follows: Insulin resistant female ZDF rats, 11 weeks of age, on a normal chow diet, are fasted overnight. A baseline tail snip blood sample is taken to measure glucose levels (Precision PCx glucose meter, Abbott Laboratories, Abbott Park, Ill.) at the beginning of the experiment. Immediately after this baseline sample, compounds of the present invention (or placebo) are dosed orally. Four hours later, a tail snip blood glucose measurement is taken, immediately followed by an oral glucose dose (OGTT, 2 gm/kg). The glucose excursion is followed for 2 hr with samples taken at 10, 20, 30, 60 and 120 min post OGTT. These timed glucose data are used to construct a glucose excursion curve, from which an area under the glucose curve (AUGC) is determined. Data are reported as the baseline-adjusted area under the glucose curve (deltaAUGC) for drug and control groups.

| half-life [1] | Compound | δ AUGC ([2]; 1.0 mg/kg oral) | δ AUGC, change versus control ([2]; 1.0 mg/kg oral) | δ AUGC ([2]; 3.0 mg/kg oral) | δ AUGC, change versus control ([2]; 3.0 mg/kg oral) |
| --- | --- | --- | --- | --- | --- |
| 12.2 h | N#C[C@@H]1CCCN1C(=O)[C@@H]1CC[C@H](c2ccccc2)N1 [Comparative compound γ] |  |  |  |  |
|  | N#C[C@@H]1CCCN1C(=O)[C@@H]1CC[C@H](COc2ccc(C(=O)O)c3ccccc23)N1 [Example 54, (2S)-1-{(5R)-5-((4-carboxynaphthalen-1-yloxy)methyl)-L-prolyl}-pyrrolidine-2-carbonitrile] | 7,600 mg/mL/dL | −24% | 7,300 mg/mL/dL | −27% |
| 5.3 h | C[C@H]1CC[C@@H](C(=O)N2CCC[C@H]2C#N)N1 [Comparative compound α] |  |  |  |  |
